Several values for one entry are separate records, joined by “and”; a condition that tells them apart may be missing. Equal values may be shown once.
Experiments:
HIF-2a [1] = assay: HIF-2a protein stability (cycloheximide, 35S-methionine pulse chase); assay type: cell-based, human; conditions: 786-O cells; for HIF-2a protein stability after cycloheximide: 10 μg/mL cycloheximide
Method: Cells were treated with medium only, DMSO, or compound as described for western blots. Following the second day of compound incubation, 10 μg/mL cycloheximide (CHx) was added to halt de novo protein synthesis and time points were taken. Protein quantification and Western blots were performed as described.
Cells were treated with medium only, DMSO, or compound as described for western blots. Following the second day of treatment, cells were washed twice in PBS and then placed into medium only, DMSO, or labeling medium (methionine minus DMEM supplemented with 1× glutamine and 5% dialyzed FBS) and pulse-labeled for 30 minutes at 37° C. with 0.5 mCi ^35S-Methionine (New England Nuclear) per p100 plate. Cells were washed twice in PBS and lysed with RIPA buffer supplemented with protease inhibitors. […] In the case of the pulse-chase experiment, two identically treated plates were placed into chasing medium (DMEM supplemented with 10% Fetal Clone I, 1× Glutamine and 3 mg/mL methionine), placed back into the 37° C. incubator and harvested after 1.5 and 3 hours. Immunoprecipitated samples were subjected to SDS-PAGE, enhanced in sodium salicylate, dried and exposed for 2-3 days before the film was quantified by densitometry.
Quantitative RT-PCR was performed on total RNA harvested from 7H4 cells treated with medium only, DMSO or compound. […] To test whether the compounds alter HIF-2a stability, the inventors assessed protein half-life following the addition of cycloheximide in compound versus DMSO-only treated cells (see FIG. 10).

IRP1 [2] = target: IRP1 (Homo sapiens, UniProt P21399); assay: HIF-2a activity (EGLN3 qRT-PCR) in IRP knock down lines; conditions: 786-O IRP knock down lines
IRP1 (Homo sapiens, UniProt P21399), sequence (P21399 whole entry): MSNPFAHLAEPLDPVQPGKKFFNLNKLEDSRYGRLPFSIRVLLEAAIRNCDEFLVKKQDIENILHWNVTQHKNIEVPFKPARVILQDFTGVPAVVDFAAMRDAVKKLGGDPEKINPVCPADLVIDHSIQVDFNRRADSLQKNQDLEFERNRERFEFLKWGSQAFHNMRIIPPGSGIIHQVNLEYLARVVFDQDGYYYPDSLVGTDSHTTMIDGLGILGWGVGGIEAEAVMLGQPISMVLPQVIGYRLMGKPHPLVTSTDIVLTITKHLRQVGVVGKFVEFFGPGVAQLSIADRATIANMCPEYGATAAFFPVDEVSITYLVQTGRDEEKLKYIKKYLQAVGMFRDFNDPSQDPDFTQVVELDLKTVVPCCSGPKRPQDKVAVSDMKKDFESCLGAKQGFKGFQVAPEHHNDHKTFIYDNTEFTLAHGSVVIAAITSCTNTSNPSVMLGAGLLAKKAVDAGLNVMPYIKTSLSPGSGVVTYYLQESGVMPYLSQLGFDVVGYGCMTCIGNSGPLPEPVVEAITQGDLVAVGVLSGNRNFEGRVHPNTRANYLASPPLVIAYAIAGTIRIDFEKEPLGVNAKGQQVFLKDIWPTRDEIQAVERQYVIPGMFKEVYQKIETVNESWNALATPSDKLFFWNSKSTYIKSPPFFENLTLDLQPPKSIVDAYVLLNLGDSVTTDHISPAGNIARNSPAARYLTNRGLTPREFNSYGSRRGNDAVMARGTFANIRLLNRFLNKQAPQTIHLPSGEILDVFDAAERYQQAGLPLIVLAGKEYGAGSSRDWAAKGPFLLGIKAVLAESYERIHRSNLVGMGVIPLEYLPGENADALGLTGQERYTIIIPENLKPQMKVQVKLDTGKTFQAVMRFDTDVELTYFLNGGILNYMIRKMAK

[3] = target: T1, IRP2 binding to Ferritin-L IRE (Homo sapiens, UniProt P48200); assay: Electrophoretic mobility shift assay, Ferritin L IRE probe; conditions: 786-O lysates, EMSA
T1 construct: when expressed in endogenous levels; endogenous in cells; host or cells: 786-O
T1 sequence (P48200 whole entry): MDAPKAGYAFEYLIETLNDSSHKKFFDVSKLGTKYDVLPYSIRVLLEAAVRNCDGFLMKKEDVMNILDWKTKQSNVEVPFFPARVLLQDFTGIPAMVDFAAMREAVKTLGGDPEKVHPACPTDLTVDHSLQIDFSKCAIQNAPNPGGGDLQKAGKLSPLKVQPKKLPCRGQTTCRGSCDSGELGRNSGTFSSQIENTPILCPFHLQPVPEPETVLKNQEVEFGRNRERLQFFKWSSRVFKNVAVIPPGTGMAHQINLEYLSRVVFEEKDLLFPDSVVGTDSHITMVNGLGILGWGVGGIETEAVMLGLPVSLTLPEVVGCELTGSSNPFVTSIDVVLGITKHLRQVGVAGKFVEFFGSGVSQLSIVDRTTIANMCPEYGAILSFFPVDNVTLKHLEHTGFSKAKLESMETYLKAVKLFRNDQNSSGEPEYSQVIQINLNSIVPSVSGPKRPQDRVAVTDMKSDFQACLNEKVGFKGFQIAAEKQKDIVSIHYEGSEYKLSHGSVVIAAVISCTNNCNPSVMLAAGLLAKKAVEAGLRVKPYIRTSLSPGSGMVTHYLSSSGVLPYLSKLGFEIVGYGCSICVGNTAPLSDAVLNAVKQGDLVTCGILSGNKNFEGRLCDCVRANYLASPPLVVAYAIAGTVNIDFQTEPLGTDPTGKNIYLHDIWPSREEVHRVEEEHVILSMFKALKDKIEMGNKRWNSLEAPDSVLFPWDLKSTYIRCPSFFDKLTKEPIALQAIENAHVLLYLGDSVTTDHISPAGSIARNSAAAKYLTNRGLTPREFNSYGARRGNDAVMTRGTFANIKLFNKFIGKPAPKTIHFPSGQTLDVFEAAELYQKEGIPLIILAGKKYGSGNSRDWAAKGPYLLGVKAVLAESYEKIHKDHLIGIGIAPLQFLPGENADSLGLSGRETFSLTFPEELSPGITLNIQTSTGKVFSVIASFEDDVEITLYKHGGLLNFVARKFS
Method: EMSAs were performed as described previously (Fillebeen et al., 2003). Briefly, 50 μg lysate from 786-O cells treated with medium only, DMSO, or compounds were incubated with 25,000 cpm wild-type or mutant radiolabeled HIF-2a IRE probe for 20 minutes at room temperature before loading onto non-denaturing acrylamide gels. Supershifts were performed identically, save that 0.2 μg control, IRP1 or IRP2 antibodies were also added. Total protein content was estimated by Bradford Assay (BioRad, 500-0006), and even loading for all experiments was confirmed by Western blot for B-Actin.
Inventors discovered that compound 76 increased the residual amount of IRP1 bound to the HIF-2a IRE in hypoxia, although not to the same extent as that observed in normoxic cells. […] Lastly, to further investigate the involvement of IRP2 in HIF-2a IRE, the inventors compared side by side IRP2 binding to HIF-2a and Ferritin-L IRE in 786-O cells, in conditions of normoxia or hypoxia and after treatment with compound 76 or DFO (FIG. 7E). While IRP2 binding was clearly detected on Ferritin IRE, the inventors were not able to detect measurable IRP2 binding on HIF-2a IRE.

IRP2 = IRP2 expression in treated cells; assay type: cell-based, human
From the text: (§1) However, IRP2 contributes very little—if at all—to the total IRP bound to the HIF2a IRE (Zimmer et al., 2008).

IRP1 [4] = assay: IRP1 expression in treated cells; assay type: cell-based, human
From the text: The inventors next tested the effect of hypoxia on the binding of IRP1 to the HIF-2a wild-type IRE. […] This is due to decreased mRNA binding, as western blots confirm that neither compound application nor hypoxia affects IRP1 protein expression. The involvement of IRP1 was further confirmed with super-shifting experiments with IRP1 antibody (FIG. 7C). No supershifted bands were observed using IRP2 antibody.
as §1

786-O cells = assay: Global translation (35S loading control, polysome analysis); assay type: cell-based, human
Method: DMSO-, rapamycin- or PGJ2-treated 786-O cells were harvested from 10 cm plates for each polysomal analysis. Confluent cells were harvested and lysed in 300 μL ofRSB [10 mmol/L NaCl, 10 mmol/L Tris-HCl (pH 7.4), 15 mmol/L MgCl2] containing 100 μg/mL heparin, 1.2% Triton X-100, and 0.12% deoxycholate. Nuclei were pelleted for 3 min in a microcentrifuge at 4° C. The 300-μL extract was layered over 11.5 mL of a 15% to 45% (wt/wt) sucrose gradient with a 0.5-mL cushion of 45% sucrose. The gradients were centrifuged at 37,000 rpm for 2.5 h in an SW 41 (Beckman) rotor at 4° C. After centrifugation, the A260 was continuously monitored and recorded across the gradient using a Foxy Jr. Density Gradient fractionation system and UA-6 UV/VIS Detector (ISCO, Inc.).
To determine if PGJ2 decreases translation of the HIF2a message, the inventors evaluated the synthesis rate and stability of the newly synthesized HIF2a by an ^35S-methionine pulse chase experiment on PGJ2 or vehicle only DMSO treated 786-O cells. […] Loading control is 1/1000th of the cell lysate used in the respective immunoprecipitation directly loaded into an SDS-PAGE gel.

Fli1-GFP fish embryo = assay: Inhibition of vascularization in fish embryo; conditions: 3microM; treated at 20 hpf, imaged 48-50 hpf
HIF-2a target genes = assay: HIF-2a target gene expression (Glut-1 Western blot, VEGF and IGFBP3 ELISA, EGLN3 qRT-PCR); assay type: cell-based, human; conditions: treated 786-O cells
Method: ID NO: 1) and [NT] […] ID NO: 3) and [NT] ID NO: 4) for […] ID NO: 5) and [NT] ID NO: 6) for Transferrin Receptor 1 ([…] ID NO: 7) and [NT] ID NO: 8) for […] ID NO: 9) and [NT] ID NO: 10) for […] ID NO. 11) and [NT] ID NO: 12) for EGLN3. […] ID NO: 13) and [NT] ID NO: 14). […] VEGF or IGFBP3 ELISA was performed on the conditioned supernatant using Quantikine immunoassay kits (R&D Systems, DVE00 for VEGF, DGB300 for IGFBP3). […] Hypoxia stabilized HIF-2a in VHL-reconstituted WT8 cells, but treatment with compounds diminished hypoxia-induced HIF-2a expression (FIG. 3C).

HIF-2a [5] = assay: Western blot for HIF-2a protein expression; assay type: cell-based, human; conditions: A498 and UMRC2 cells

SMILES | HIF-2a protein stability by 35S-methionine pulse chase (HIF-2a [1]) | HIF-2a protein stability after cycloheximide (HIF-2a [1]) | effect on HIF-2a activity when IRP1 is knocked down (IRP1 [2]) | also measured
CC1(C)CC(=O)C=C(Sc2ccc(C#N)cc2[N+](=O)[O-])S1 [Compound 77, 4-[(2,2-dimethyl-4-oxo-3,4-dihydro-2H-thiin-6-yl)thio]-3-nitrobenzonitrile] | have no affect on HIF-2a protein stability | no compound of 40, 41, 76 and 77 significantly affects HIF-2a stability | inhibition of IRP1 is sufficient to block effect of compounds on HIF-2a activity | –
COC(=O)c1sccc1N/N=C(/C#N)S(C)(=O)=O [Compound 76, methyl 3-{2-[cyano(methylsulfonyl)methylene] hydrazino}thiophene-2-carboxylate] | have no affect on HIF-2a protein stability | no compound of 40, 41, 76 and 77 significantly affects HIF-2a stability | inhibition of IRP1 is sufficient to block effect of compounds on HIF-2a activity | binding of IRP2 to Ferritin-L IRE [3]: slightly enhanced
COc1ccc(O)c(/C=C/C(=O)c2c(O)cc(C)oc2=O)c1 [Compound 41, 4-hydroxy-3-[3-(2-hydroxy-5-meoxyphenyl)acryloyl]-6-methyl-2H-pyran-2-one] | have no affect on HIF-2a protein stability | no compound of 40, 41, 76 and 77 significantly affects HIF-2a stability | – | –
C/C(=C\c1ccccc1)C(=O)CCN(C)C.Cl [Compound 40, 5-(dimethylamino)-2-methyl-1-phenyl-1-penten-3-one hydrochloride] | have no affect on HIF-2a protein stability | no compound of 40, 41, 76 and 77 significantly affects HIF-2a stability | – | –
CCCCC/C=C/C=C1/C(=O)C=C[C@@H]1C/C=C\CCCC(=O)O [PGJ2, 15-deoxy-Δ^12,14-prostaglandin J2] | – | no indication that PGJ2 affects HIF2a protein half-life | – | IRP2 expression (IRP2): minimally increased; IRP1 expression (IRP1 [4]): not affected; global cellular translation (35S-methionine loading control) (786-O cells; 10 μM): does not globally decrease cellular translation; ribosomes actively engaged in translation (polysome analysis) (786-O cells; 24 hours): little effect on the number of ribosomes actively engaged in translation; Totals: Completed (Fli1-GFP fish embryo): 47; Totals: stalled (Fli1-GFP fish embryo): 39; completed of total, per animal (Fli1-GFP fish embryo): 6 of 17 (2×) and 17 of 18 and 9 of 17 (2×); expression of HIF-2a target genes (Glut-1, VEGF, IGFBP3, EGLN3) (HIF-2a target genes): decrease; HIF2a protein expression in other VHL-deficient renal cell carcinoma lines (HIF-2a [5]): decreased HIF2a protein expression
